Data: US9169234B2, “Sepiapterin reductase inhibitors for the treatment of pain” (Children's Medical Center Corporation, priority 2009, dated 2015)
Read-outs that look alike come from different tables or passages of the source.

Target: recombinant human SPR (Sepiapterin Reductase) (Homo sapiens (Human), UniProt P35270)
Assay: SPR inhibition biochemical assay with chromogenic (OD at 420 nm) and LC/MS (L-biopterin formation) read-out
Procedure: The compounds described herein were screened for activity as inhibitors of Sepiapterin Reductase (SPR).
Bacteria were grown at 37° C., and expression of SPR protein was induced for 4 hours.
To screen for SPR inhibition, a biochemical assay based on LC/MS (and chromogenic) read-out has been developed. The LC/MS assay monitors the product formation (L-biopterin) and the chromogenic assay measures OD at 420 nm.
N-methoxyacetyl serotonin was used as a reference compound (positive control).
The exemplary assay protocol uses the following conditions: SPR (6 nM); L-Sepiapterin (50 μM); NADPH (100 μM); Na-Phosphate buffer, pH 6.5 (100 mM); 82 μL assay volume; 60 minutes incubation with compounds (0.5% final concentration in DMSO) at 37° C. in Greiner μClear® 384 well plates.
For example, the compounds of Table 1 were screened using this additional method in triplicate.

[1] = LC/MS read-out, L-biopterin product formation, SPR 6 nM, L-Sepiapterin 50 μM, NADPH 100 μM, pH 6.5, 60 minutes at 37° C., read-out: IC50 LC/MS
[2] = chromogenic read-out, OD at 420 nm, SPR 6 nM, L-Sepiapterin 50 μM, NADPH 100 μM, pH 6.5, 60 minutes at 37° C., read-out: IC50 chromogenic

recombinant human SPR (Sepiapterin Reductase), sequence (P35270 whole entry): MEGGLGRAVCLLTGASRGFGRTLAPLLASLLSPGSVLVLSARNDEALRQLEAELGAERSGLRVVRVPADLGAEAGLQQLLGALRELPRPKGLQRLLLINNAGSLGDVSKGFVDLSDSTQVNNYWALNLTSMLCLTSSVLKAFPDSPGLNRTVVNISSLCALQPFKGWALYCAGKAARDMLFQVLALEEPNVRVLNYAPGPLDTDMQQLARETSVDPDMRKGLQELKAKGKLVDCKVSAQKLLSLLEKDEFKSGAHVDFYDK

Row | IC50 [1] [µM] | IC50 [2] [µM] | IC50 (reference compound (positive control), read-out not specified, read-out: IC50 measured using the screening conditions) [µM] | Structure (SMILES)
1 | 0.33 | 0.4 | – | CC(C)C(=O)NCCc1c[nH]c2ccc(O)cc12 [(1)]
2 | 0.34 | 0.36 | – | O=C(NCCc1c[nH]c2ccc(O)cc12)C1CC1 [(2)]
3 | 2.2 | 2.8 | – | CCOCC(=O)NCCc1c[nH]c2ccc(O)cc12 [(3)]
4 | 1.6 | 2.1 | – | Oc1ccc2[nH]cc(CCNc3cccnc3)c2c1 [(12)]
5 | 2.8 | 3.4 | – | COCC(=O)NCCc1c[nH]c2ccc(F)cc12 [(16)]
6 | 3.2 | 4.5 | – | COCC(=O)NCCc1c[nH]c2ccc(S(C)(=O)=O)cc12 [(17)]
7 | 0.086 | 0.084 | – | COCC(=O)NCCc1cn(C)c2ccc(O)cc12 [(21)]
8 | 0.31 | 0.31 | – | COCC(=O)NCC(=O)c1c[nH]c2ccc(O)cc12 [(24)]
9 | 0.069 | 0.064 | – | COCC(=O)NCCc1cccc(O)c1 [(32)]
10 | 0.043 | 0.042 | 0.02 to 0.04 | COCC(=O)NCCc1c[nH]c2ccc(O)cc12 [N-Methoxyacetyl-Serotonin, reference compound]
